Source: ChEMBL document CHEMBL1147195, “Synthesis and activity of quinolinyl-methylene-thiazolinones as potent and selective cyclin-dependent kinase 1 inhibitors” (Bioorg Med Chem Lett, 2007)

Assays:
[1] = Inhibition of CDK1/cyclinB; design: species or system Homo sapiens
[2] = biological target: Protein kinase C delta type (Homo sapiens, UniProt Q05655); assay: Inhibition of PKCd
[3] = biological target: Ribosomal protein S6 kinase alpha-3 (Homo sapiens, UniProt P51812)
[4] = biological target: Protein kinase C alpha type (Homo sapiens, UniProt P17252); assay: Inhibition of PKCa
[5] = biological target: Mitogen-activated protein kinase 1 (Homo sapiens, UniProt P28482); assay: Inhibition of ERK
[6] = biological target: Serine/threonine-protein kinase AKT (Homo sapiens, UniProt P31751+Q9Y243+P31749); assay: Inhibition of AKT; format: protein assay
[7] = biological target: Tyrosine-protein kinase Fyn (Homo sapiens, UniProt P06241); assay: Inhibition of FYN
[8] = biological target: Cyclin-dependent kinase 4 (Homo sapiens, UniProt P11802); assay: Inhibition of CDK4
Ephrin type-B receptor 3 = biological target: T1, Ephrin type-B receptor 3 (Homo sapiens, UniProt P54753); assay: Inhibition of EPHB3
T1 sequence (P54753 whole entry): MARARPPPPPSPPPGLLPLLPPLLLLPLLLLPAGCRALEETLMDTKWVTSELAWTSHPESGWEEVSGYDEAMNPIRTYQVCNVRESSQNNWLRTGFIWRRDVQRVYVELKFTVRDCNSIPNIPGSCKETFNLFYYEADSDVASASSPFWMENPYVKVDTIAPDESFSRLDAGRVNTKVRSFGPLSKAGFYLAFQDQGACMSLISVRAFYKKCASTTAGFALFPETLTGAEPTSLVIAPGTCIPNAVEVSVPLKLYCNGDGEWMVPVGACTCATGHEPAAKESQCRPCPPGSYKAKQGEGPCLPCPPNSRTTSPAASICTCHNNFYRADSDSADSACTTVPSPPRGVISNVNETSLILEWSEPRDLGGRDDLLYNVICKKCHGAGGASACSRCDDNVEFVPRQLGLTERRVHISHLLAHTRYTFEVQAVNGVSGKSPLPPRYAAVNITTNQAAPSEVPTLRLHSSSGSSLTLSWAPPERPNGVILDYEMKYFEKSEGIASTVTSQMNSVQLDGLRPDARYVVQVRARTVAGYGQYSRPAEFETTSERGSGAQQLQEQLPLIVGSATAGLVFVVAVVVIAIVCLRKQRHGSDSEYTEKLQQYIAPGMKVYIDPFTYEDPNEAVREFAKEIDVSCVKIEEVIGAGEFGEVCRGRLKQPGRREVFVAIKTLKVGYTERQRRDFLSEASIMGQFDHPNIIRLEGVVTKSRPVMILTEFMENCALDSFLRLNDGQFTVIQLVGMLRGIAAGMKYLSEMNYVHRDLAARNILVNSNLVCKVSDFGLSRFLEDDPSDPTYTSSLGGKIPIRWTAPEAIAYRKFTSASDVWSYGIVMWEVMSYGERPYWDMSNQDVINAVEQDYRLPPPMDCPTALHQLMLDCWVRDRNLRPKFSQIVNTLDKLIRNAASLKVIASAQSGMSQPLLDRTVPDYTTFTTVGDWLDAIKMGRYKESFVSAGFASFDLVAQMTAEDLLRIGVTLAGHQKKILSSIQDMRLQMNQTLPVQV

[9] = biological target: Glycogen synthase kinase-3 (Homo sapiens, UniProt P49840+P49841); assay: Inhibition of GSKp1; format: protein assay
[10] = biological target: Cyclin-dependent kinase 2 (Homo sapiens, UniProt P24941); assay: Inhibition of CDK2
SJSA-1 = assay: Antiproliferative activity against human SJSA1 cells; format: functional, cell-based

Chain of Protein kinase C delta type (Q05655 whole entry): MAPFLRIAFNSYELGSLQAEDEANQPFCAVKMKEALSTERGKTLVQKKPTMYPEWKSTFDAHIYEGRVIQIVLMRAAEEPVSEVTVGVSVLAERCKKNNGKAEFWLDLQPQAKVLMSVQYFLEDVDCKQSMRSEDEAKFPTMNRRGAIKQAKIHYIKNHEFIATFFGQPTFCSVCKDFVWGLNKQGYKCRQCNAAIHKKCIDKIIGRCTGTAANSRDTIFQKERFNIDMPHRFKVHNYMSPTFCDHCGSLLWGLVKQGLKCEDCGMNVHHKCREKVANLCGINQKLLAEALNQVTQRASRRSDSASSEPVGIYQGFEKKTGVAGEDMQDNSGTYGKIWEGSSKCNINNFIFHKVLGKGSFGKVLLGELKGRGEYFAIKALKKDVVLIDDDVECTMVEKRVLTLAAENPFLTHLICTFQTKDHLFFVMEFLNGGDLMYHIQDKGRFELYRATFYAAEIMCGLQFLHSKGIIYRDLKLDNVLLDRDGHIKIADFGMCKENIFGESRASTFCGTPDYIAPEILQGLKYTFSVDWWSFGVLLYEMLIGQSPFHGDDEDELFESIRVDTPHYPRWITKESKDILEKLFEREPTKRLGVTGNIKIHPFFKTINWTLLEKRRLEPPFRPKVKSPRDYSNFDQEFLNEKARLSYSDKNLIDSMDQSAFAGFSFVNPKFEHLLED
Chain of Tyrosine-protein kinase Fyn (P06241 whole entry): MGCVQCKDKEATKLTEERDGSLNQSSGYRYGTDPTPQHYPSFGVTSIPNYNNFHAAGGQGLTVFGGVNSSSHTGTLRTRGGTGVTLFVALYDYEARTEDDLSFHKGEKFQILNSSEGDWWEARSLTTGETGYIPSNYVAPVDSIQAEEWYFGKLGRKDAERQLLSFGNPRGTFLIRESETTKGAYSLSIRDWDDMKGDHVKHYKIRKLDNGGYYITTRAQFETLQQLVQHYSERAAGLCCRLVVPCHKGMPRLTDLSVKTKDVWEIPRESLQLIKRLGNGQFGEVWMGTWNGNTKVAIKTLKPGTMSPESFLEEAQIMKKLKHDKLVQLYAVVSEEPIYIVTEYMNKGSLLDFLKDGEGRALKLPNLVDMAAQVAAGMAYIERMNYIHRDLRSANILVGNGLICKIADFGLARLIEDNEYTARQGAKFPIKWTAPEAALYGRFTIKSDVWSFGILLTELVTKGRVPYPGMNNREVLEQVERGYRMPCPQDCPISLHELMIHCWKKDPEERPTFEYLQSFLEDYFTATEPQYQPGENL
Chain of Mitogen-activated protein kinase 1 (P28482 whole entry): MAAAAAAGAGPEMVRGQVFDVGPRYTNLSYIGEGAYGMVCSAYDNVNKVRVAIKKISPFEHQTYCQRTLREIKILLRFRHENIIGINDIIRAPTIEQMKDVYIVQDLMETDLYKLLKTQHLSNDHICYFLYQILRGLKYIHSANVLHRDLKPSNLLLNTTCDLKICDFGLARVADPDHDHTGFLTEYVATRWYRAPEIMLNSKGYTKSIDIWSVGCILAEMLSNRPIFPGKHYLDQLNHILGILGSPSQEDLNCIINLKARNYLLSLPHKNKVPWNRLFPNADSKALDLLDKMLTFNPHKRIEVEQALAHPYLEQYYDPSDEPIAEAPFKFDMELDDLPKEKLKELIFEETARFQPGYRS
Chain of Ribosomal protein S6 kinase alpha-3 (P51812 whole entry): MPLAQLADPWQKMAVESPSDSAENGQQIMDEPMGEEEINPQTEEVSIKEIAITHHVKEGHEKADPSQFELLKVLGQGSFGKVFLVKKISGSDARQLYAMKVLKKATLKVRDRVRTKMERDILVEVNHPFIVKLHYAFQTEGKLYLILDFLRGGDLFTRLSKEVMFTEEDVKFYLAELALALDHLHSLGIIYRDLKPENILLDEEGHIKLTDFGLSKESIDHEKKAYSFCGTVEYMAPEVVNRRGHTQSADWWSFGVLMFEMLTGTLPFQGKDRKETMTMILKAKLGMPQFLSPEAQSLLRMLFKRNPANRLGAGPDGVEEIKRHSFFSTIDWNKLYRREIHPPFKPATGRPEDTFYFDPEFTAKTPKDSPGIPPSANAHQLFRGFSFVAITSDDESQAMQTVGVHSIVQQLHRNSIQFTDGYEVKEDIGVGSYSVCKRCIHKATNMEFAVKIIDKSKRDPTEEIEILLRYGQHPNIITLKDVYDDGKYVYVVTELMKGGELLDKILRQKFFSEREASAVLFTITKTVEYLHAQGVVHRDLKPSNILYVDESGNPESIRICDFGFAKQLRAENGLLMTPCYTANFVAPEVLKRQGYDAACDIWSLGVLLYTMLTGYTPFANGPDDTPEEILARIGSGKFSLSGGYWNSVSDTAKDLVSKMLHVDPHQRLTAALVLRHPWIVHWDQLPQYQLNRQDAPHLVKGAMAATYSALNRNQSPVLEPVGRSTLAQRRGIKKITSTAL
Chain of Cyclin-dependent kinase 4 (P11802 whole entry): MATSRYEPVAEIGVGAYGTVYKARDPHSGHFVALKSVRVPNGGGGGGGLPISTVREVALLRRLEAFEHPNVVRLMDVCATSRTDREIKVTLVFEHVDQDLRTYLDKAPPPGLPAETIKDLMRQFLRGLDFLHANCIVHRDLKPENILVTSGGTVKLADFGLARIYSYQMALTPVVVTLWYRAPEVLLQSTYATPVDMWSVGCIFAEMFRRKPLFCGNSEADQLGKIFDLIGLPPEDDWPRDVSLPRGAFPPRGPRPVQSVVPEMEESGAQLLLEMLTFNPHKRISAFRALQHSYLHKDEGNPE

Structure (SMILES) | Ki [1] [nM] | also measured
COC[C@H](NC1=NC(=O)/C(=C/c2ccc3ncccc3c2)S1)c1ccccc1 | > 2000 | –
NC1=NC(=O)/C(=C/c2ccc3ncccc3c2)S1 | 80 | Ki [2]: 1700 nM; Ki [3]: > 2000 nM; Ki [4]: > 2000 nM; Ki [5]: > 2000 nM; Ki [6]: > 2 µM; Ki [7]: > 2000 nM; Ki [8]: > 2000 nM; Ki (Ephrin type-B receptor 3): > 2000 nM; Ki [9]: > 2 µM; Ki [10]: 2000 nM
O=C1N=C(NCc2ccccc2)S/C1=C\c1ccc2ncccc2c1 | 150 | –
COc1ccc(CCNC2=NC(=O)/C(=C/c3ccc4ncccc4c3)S2)cc1 | 390 | –
O=C1N=C(NCCc2ccccc2)S/C1=C\c1ccc2ncccc2c1 | 60 | –
O=C1N=C(NCc2ccccc2Br)S/C1=C\c1ccc2ncccc2c1 | 38 | –
O=C1N=C(NCCc2ccccc2Cl)S/C1=C\c1ccc2ncccc2c1 | 46 | –
CNC1=NC(=O)/C(=C/c2ccc3ncccc3c2)S1 | 270 | –
O=C1N=C(NCCc2ccccn2)S/C1=C\c1ccc2ncccc2c1 | 280 | –
O=C1N=C(NCCc2ccc(F)cc2)S/C1=C\c1ccc2ncccc2c1 | 62 | –
O=C1N=C(NCCCc2ccccc2)S/C1=C\c1ccc2ncccc2c1 | 240 | –
O=C1N=C(NCCc2ccc(Br)cc2)S/C1=C\c1ccc2ncccc2c1 | 640 | –
O=C1N=C(N[C@@H](CO)Cc2ccccc2)S/C1=C\c1ccc2ncccc2c1 | 230 | IC50 (SJSA-1): 3.24 µM
O=C1N=C(NCCc2cccc(Cl)c2)S/C1=C\c1ccc2ncccc2c1 | 130 | –
O=C1N=C(NCCc2cccs2)S/C1=C\c1ccc2ncccc2c1 | 45 | –
O=C1N=C(NC2CC2)S/C1=C\c1ccc2ncccc2c1 | 270 | –
O=C1N=C(Nc2ccccc2)S/C1=C\c1ccc2ncccc2c1 | > 2000 | –
CONC1=NC(=O)/C(=C/c2ccc3ncccc3c2)S1 | > 2000 | –

Structure (SMILES) | Ki [1] [nM] | also measured
O=C1N=C(N[C@@H](CO)c2ccccc2)S/C1=C\c1ccc2ncccc2c1 | 350 | –
O=C1N=C(NCc2c(Cl)cccc2Cl)S/C1=C\c1ccc2ncccc2c1 | 1040 | –
COc1ccccc1CCNC1=NC(=O)/C(=C/c2ccc3ncccc3c2)S1 | 63 | –
O=C1N=C(N[C@H](CO)c2ccccc2)S/C1=C\c1ccc2ncccc2c1 | 580 | –
O=C1N=C(N[C@@H]2C[C@H]2c2ccccc2)S/C1=C\c1ccc2ncccc2c1 | 23 | Ki [2]: 480 nM; Ki [3]: > 2000 nM; Ki [4]: > 2000 nM; Ki [5]: 220 nM; Ki [6]: > 2 µM; Ki [7]: > 2000 nM; IC50 (SJSA-1): 1.85 µM; Ki [8]: > 2000 nM; Ki (Ephrin type-B receptor 3): > 2000 nM; Ki [9]: > 2 µM; Ki [10]: > 2000 nM
O=C1N=C(N[C@H](CO)Cc2ccccc2)S/C1=C\c1ccc2ncccc2c1 | 2000 | –
O=C1N=C(NCCc2cccc(F)c2)S/C1=C\c1ccc2ncccc2c1 | 60 | –
O=C1N=C(NCc2ccccn2)S/C1=C\c1ccc2ncccc2c1 | 310 | –
Cc1ccsc1CNC1=NC(=O)/C(=C/c2ccc3ncccc3c2)S1 | 89 | –
CN(Cc1cccs1)C1=NC(=O)/C(=C/c2ccc3ncccc3c2)S1 | > 2000 | –
O=C1N=C(NCCc2ccc(Cl)cc2)S/C1=C\c1ccc2ncccc2c1 | 410 | –
CCOc1ccccc1CCNC1=NC(=O)/C(=C/c2ccc3ncccc3c2)S1 | 87 | –
O=C1N=C(NCCc2ccccc2F)S/C1=C\c1ccc2ncccc2c1 | 120 | –
COc1ccccc1CNC1=NC(=O)/C(=C/c2ccc3ncccc3c2)S1 | 86 | –
O=C1N=C(NCC(CO)c2ccccc2)S/C1=C\c1ccc2ncccc2c1 (stereo not given) | 390 | –
O=C1N=C(NCc2cccs2)S/C1=C\c1ccc2ncccc2c1 | – | Ki [2]: 320 nM; Ki [4]: > 2000 nM; Ki [5]: 2000 nM; Ki [6]: > 2 µM; Ki [7]: > 2000 nM; IC50 (SJSA-1): 4.55 µM; Ki (Ephrin type-B receptor 3): > 2000 nM; Ki [9]: 0.5 µM
CCCCNC1=NC(=O)/C(=C/c2ccc3ncccc3c2)S1 | 310 | –
O=C1N=C(NCc2ccccc2Cl)S/C1=C\c1ccc2ncccc2c1 | 52 | –
